The results in this text go back to patent publication US8211890B2, “5-amino-2-(1-hydroxy-ethyl)-tetrahydropyran derivatives” (Actelion Pharmaceuticals, priority 2008, dated 2012).

One data set relates to S. aureus A798. Briefly: Bacterial growth minimal inhibitory concentrations (microdilution, cation-adjusted Mueller-Hinton Broth). The format is cell-based. The conditions noted are these: for MIC: Staphylococcus aureus. As for the experimental part: Minimal inhibitory concentrations (MICs; mg/l) were determined in cation-adjusted Mueller-Hinton Broth by a microdilution method following the description given in “Methods for Dilution Antimicrobial Susceptibility Tests for Bacteria that Grow Aerobically”, Approved standard, 7th ed., Clinical and Laboratory Standards Institute (CLSI) Document M7-A7, Wayne, Pa., USA, 2006.
Background: In broth dilution the organism is exposed to a series of concentrations in liquid medium.

For a further data set, the target named is hERG K+ channel (Homo sapiens, UniProt Q12809). Kind of data set: In vitro blocking of hERG K+ channels (QPatch automated patch-clamp, CHO-K1 cells). It counts as cell-based. To be noted: pH 7.4, at 10 μM, CHOhERG cells, 4 minutes of stimulation, average block on two cells. The procedure: hERG K^+ channels have been cloned from human heart and recombinant channels are stably expressed in CHO-K1 cells (CHOhERG). These cells have been purchased from bSys GmbH (CH-4052 Basel, Switzerland) and are grown in 150 mL culture flasks at 37° C. in 5% CO2. When the cells are ˜100% confluent, they are detached with 0.25% trypsin-EDTA solution and placed in the cell preparation unit of a QPatch automated patch-clamp robot (Sophion Bioscience A/S, 2750 Ballerup, Denmark). Currents through the hERG K^+ channels (IKhERG) are elicited using the following buffer solutions and voltage protocol: • extracellular solution (in mM): [NaCl]=150; [KCl]=4; [CaCl2]=1.2; [MgCl2]=1; [HEPES]=10; pH adjusted to 7.4 with NaOH; • intracellular solution (in mM): [KCl]=140; [NaCl]=10; [MgCl2]=1; [HEPES]=10; [EGTA]=5; [Mg-ATP]=5; […] After the cells have stabilized for a few minutes and the currents are steady, the amplitude of IKhERG is recorded under control conditions. Thereafter, the QPatch robot applies the test compound to the cell at the test concentration and, after 4 minutes of stimulation, the amplitude of IKhERG is recorded under test conditions. The ratio of the two amplitudes is used to define a fractional block and the average block on two cells is used to provide the effect of a given concentration (e.g. 10 μM). If, for a given test compound, a sufficient number of concentrations were tested, an apparent IC50 for inhibition of IKhERG is calculated.
In general terms: The hERG channel carries a current that helps repolarise heart muscle cells.

Where [1] appears, read: comparison table of compounds of formula ICOMP.

One may read the MIC as the smallest concentration in the dilution series that meets the test's criterion for growth inhibition. Low values mean inhibition by little substance, high ones a need for much substance. In general, inhibition refers to the change of the read-out against control, counted positive when it falls. A high value points to a strong effect.

Some results are limits rather than exact numbers.

Chain of hERG K+ channel (Q12809 whole entry): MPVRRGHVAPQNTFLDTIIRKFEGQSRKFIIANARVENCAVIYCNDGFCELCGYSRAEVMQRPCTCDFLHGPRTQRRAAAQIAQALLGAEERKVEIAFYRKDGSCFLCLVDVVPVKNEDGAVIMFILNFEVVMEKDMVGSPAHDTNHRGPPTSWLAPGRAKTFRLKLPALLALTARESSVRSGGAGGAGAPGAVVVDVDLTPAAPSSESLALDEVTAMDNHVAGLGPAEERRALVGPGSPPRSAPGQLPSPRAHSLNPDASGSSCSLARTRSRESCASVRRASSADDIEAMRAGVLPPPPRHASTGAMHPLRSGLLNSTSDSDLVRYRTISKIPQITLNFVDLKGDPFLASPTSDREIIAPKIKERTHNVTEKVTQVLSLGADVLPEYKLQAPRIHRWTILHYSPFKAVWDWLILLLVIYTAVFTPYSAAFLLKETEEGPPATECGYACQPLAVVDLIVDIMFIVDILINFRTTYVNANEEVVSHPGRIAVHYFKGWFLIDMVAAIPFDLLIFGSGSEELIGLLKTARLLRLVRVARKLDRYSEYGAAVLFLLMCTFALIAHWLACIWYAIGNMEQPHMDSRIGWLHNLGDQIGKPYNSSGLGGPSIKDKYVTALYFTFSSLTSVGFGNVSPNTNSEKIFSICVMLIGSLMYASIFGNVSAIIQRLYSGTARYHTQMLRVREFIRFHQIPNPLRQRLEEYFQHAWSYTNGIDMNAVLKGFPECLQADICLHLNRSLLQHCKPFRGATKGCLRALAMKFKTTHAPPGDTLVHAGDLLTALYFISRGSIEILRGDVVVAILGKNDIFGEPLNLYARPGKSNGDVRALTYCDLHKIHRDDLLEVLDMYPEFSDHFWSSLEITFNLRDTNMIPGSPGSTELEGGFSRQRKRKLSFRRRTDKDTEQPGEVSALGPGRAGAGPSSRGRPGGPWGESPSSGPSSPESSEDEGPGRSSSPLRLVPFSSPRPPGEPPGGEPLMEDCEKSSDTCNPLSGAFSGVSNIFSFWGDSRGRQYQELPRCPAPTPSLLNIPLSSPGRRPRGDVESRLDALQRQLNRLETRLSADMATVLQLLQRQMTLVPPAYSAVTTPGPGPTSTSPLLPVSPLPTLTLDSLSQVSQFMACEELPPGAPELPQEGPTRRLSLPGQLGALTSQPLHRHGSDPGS

On to `COc1ccc2ncc(F)c(C[C@H](O)[C@@H]3CC[C@@H](NCc4cc5c(cn4)OCCO5)CO3)c2n1` [Example 3, (1S)-1-{(2S,5R)-5-[(2,3-dihydro-[1,4]dioxino[2,3-c]pyridin-7-ylmethyl)-amino]-tetrahydro-pyran-2-yl}-2-(3-fluoro-6-methoxy-[1,5]naphthyridin-4-yl)-ethanol], for which the MIC with S. aureus A798 (microdilution) was at most 0.031 µg/mL. Moreover, the “MIC for S. aureus A798” value with S. aureus A798 (setting [1]) is on record as “≦0.031 mg/l”. Also, at hERG K+ channel, the inhibition at 4 min, 10 µM is 29%.

Turning to `COc1ccc2ncc(F)c(CCC3CCC(NCc4cc5c(cn4)OCCO5)CO3)c2n1` (centres unmarked) [Reference Example No. 1, reference compound], the minimum inhibitory concentration (MIC) in the data set on S. aureus A798 (setting [1]) is at most 0.031 µg/mL. Moreover, at hERG K+ channel, the inhibition at 4 min, 10 µM amounted to 77%.

Regarding `COc1ccc2ncc(F)c(C[C@H](O)[C@@H]3CC[C@@H](NCc4cc5c(nn4)OCCO5)CO3)c2n1` [Example 4, (1S)-1-{(2S,5R)-5-[(6,7-dihydro-[1,4]dioxino[2,3-c]pyridazin-3-ylmethyl)-amino]-tetrahydro-pyran-2-yl}-2-(3-fluoro-6-methoxy-[1,5]naphthyridin-4-yl)-ethanol], the minimal inhibitory concentration (MIC) against S. aureus A798 (microdilution) is at most 0.031 µg/mL. Further, the “MIC for S. aureus A798” value against S. aureus A798 (setting [1]) was “≦0.031 mg/l”. For the same compound, the inhibition at 4 min, 10 µM at hERG K+ channel was determined as 5%.
